# Results from US20090291088A1, “THERAPEUTIC COMBINATIONS OF ANTI-IGF-1R ANTIBODIES AND OTHER COMPOUNDS” (Biogen Idec MA Inc., priority 2008, published 2009).
# Legend:
# IGF-1R = experiment: Biacore analysis of the IGF-1R-Fc mutant library: M13-C06 Fab binding to receptor-Fc captured on M13-C06 chip; parameters: species or system human; conditions: for Biacore Relative RUmax: M13-C06 Fab binding to mutant hIGF-1R-Fc captured on M13-C06 chip
# From the text: Both mIGF-1R-Fc and hIGF-1R-Fc bind with high apparent affinity to the M13-C06, M14-C03, and M14-G11 sensorchip surfaces described above due to their highly multivalent nature induced by the incorporation of two separate homodimeric regions (IGF-1R and IgG1-Fc). To distinguish between the actual high affinity binding hIGF-1R-Fc to M13-C06 and the low affinity binding of mIGF-1R-Fc to M13-C06, the receptor-Fc fusions were captured on the M13-C06 sensorchip surface followed by an additional soluble M13-C06 Fab binding event. […] After, completion of the receptor-Fc loading step, flow rates were elevated to 5 μl/min. 10 nM, […], and 1 nM M13-C06 Fab concentrations were injected (50 μL) subsequent to the loading of each receptor-Fc construct. At the end of each sensorgram, the flow rate was elevated to 30 μl/min and the chip surface was regenerated by 2×10 μL injections of 0.1 M glycine, pH 2.
# IGF-1R-Fc = experiment: Surface plasmon resonance analysis of the IGF-1R-Fc mutant library (46 mutants); format: binding, human; conditions: for C06 binding: M13-C06 Fab; for C06 binding / C03 binding / G11 binding / P1E2 binding / αIR3 binding: KD relative to WT hIGF-1R-Fc; for C03 binding: M14-C03 Fab; for G11 binding: M14-G11 Fab; for P1E2 binding: P1E2 antibody; for αIR3 binding: αIR3 antibody; for loss in affinity for M14-G11 Fab based on the measured KD: mutant versus wild-type
# Method: Surface plasmon resonance (SPR) experiments were performed on a Biacore 3000 instrument set to 25° C. Both mIGF-1R-Fc and hIGF-1R-Fc bind with high apparent affinity to research grade CM5 sensorchip surfaces containing immobilized M13-C06, M14-C03, and M14-G11. The antibody sensorchip surfaces were prepared by injecting each antibody (diluted 100 μg/mL in 10 mM Acetate, pH 4.0) over EDC/NHS-activated sensorchip surfaces according to the standard protocol of the manufacturer. The ability of mIGF-1R-Fc to bind the antibody surfaces was the result of high apparent avidity of the protein. Both hIGF-1R-Fc and mIGF-1R-Fc proteins oligomerize due to the incorporation of two separate homodimeric regions (IGF-1R and IgG1-Fc). To distinguish between actual high affinity antibody binding to hIGF-1R-Fc and low affinity antibody binding to mIGF-1R-Fc, the receptor-Fc fusions were captured on the M13-C06 and M14-G11 sensorchip surfaces followed by an additional injection of antibody (αIR3 and P1E2) or antibody Fab (M13-C06, M14-C03, and M14-G11). […] After, completion of the receptor-Fc loading step, flow rates were elevated to 5 μl/min. Solutions containing M13-C06 Fab or αIR3 antibody at 10 nM, 3 nM, or 1 nM or M14-C03 Fab, M14-G11 Fab, or P1E2 antibody at 30 nM, 10 nM, or 3 nM were injected (50 μL) subsequent to the loading of each receptor-Fc construct. Dissociation was measured for 7 minutes after the antibody injections were complete. Finally, the flow rate was elevated to 30 μL/min and the chip surfaces were regenerated by 2×10 μL injections of 0.1 M glycine, pH 2.
# M13-C06, M14-C03, M14-G11, P1E2 and αIR3 were assayed for their ability to interact with each of the mutant IGF-1R-Fc fusion constructs using surface plasmon resonance (Biacore). To remove the uncertain concentrations of the IGF-1R-Fc fusion constructs as a variable in the assay, each mutant construct was captured on a research grade CM5 chip containing ˜10,000 RU immobilized […], M14-C03, and M14-G11 antibody. To enhance our ability to visualize attenuations in antibody binding to the captured mutant IGF-1R constructs, we utilized enzymatically derived M13-C06, M14-C03, and M14-G11 antigen binding fragments (Fabs).
# [1] = tested on: NSCLC, pancreatic, and colon cancer cell lines; experiment: Cell viability, M13-C06 and PD0325901 alone or combined; format: cell-based; conditions: PD0325901 single agent
# Method: Cells were plated at 5000 cells/well in 96-well tissue culture plates in RPMI-1640 containing 10% fetal bovine serum, then treated with M13-C06 and PD0325901 as single agents or in combination at 1:3 serial dilutions with a starting concentration of 200 nM for M13-C06 and 10 microM for PD0325901. Cell viability was determined three or five days later by measuring ATP levels with CELL TITER GLO™ reagent from Promega.
Compound,Biacore Relative RUmax (IGF-1R),"binding activity toward M13-C06 (IGF-1R; SPR and tr-FRET, both assays)",loss in affinity for M14-G11 Fab based on the measured KD (IGF-1R-Fc),C06 binding (IGF-1R-Fc),C03 binding (IGF-1R-Fc),G11 binding (IGF-1R-Fc),P1E2 binding (IGF-1R-Fc),αIR3 binding (IGF-1R-Fc),effect of mutation on M13-C06 and M14-C03 Fab binding (IGF-1R-Fc),cell growth ([1]; 7 NSCLC cell lines),cell growth ([1]; BxPC3 and Panc-1),cell growth ([1]; H460 and H1650),cell growth ([1]; MiaPaCa2 and Su86.86)
SD003: hIGF-1R-Fc mutant T188F,1.0,–,–,NE (No effect (NE): measured KD within 2.5-fold of WT hIGF-1R-Fc),–,NE (No effect (NE): measured KD within 2.5-fold of WT hIGF-1R-Fc),–,–,–,–,–,–,–
SD011: hIGF-1R-Fc mutant G285S_S286T,1.8,–,–,NE (No effect (NE): measured KD within 2.5-fold of WT hIGF-1R-Fc),NE (No effect (NE): measured KD within 2.5-fold of WT hIGF-1R-Fc),NE (No effect (NE): measured KD within 2.5-fold of WT hIGF-1R-Fc),NE (No effect (NE): measured KD within 2.5-fold of WT hIGF-1R-Fc),NE (No effect (NE): measured KD within 2.5-fold of WT hIGF-1R-Fc),–,–,–,–,–
SD017: hIGF-1R-Fc mutant I650S,2.0,–,–,NE (No effect (NE): measured KD within 2.5-fold of WT hIGF-1R-Fc),NE (No effect (NE): measured KD within 2.5-fold of WT hIGF-1R-Fc),NE (No effect (NE): measured KD within 2.5-fold of WT hIGF-1R-Fc),–,–,–,–,–,–,–
SD009: hIGF-1R-Fc mutant E264K,0.6,–,–,NE (No effect (NE): measured KD within 2.5-fold of WT hIGF-1R-Fc),NE (No effect (NE): measured KD within 2.5-fold of WT hIGF-1R-Fc),NE (No effect (NE): measured KD within 2.5-fold of WT hIGF-1R-Fc),NE (No effect (NE): measured KD within 2.5-fold of WT hIGF-1R-Fc),NE (No effect (NE): measured KD within 2.5-fold of WT hIGF-1R-Fc),–,–,–,–,–
"SD008: hIGF-1R-Fc mutant S257F (Table 20), S258F (Table 17)",1.5,–,approximately 3 fold,NE (No effect (NE): measured KD within 2.5-fold of WT hIGF-1R-Fc),NE (No effect (NE): measured KD within 2.5-fold of WT hIGF-1R-Fc),W (Weak (W): measured KD between 2.5-10-fold higher than WT),W (Weak (W): measured KD between 2.5-10-fold higher than WT),NE (No effect (NE): measured KD within 2.5-fold of WT hIGF-1R-Fc),–,–,–,–,–
SD013: hIGF-1R-Fc mutant D405K,0.7,–,–,NE (No effect (NE): measured KD within 2.5-fold of WT hIGF-1R-Fc),NE (No effect (NE): measured KD within 2.5-fold of WT hIGF-1R-Fc),NE (No effect (NE): measured KD within 2.5-fold of WT hIGF-1R-Fc),–,–,–,–,–,–,–
"O=C(NOC[C@H](O)CO)c1ccc(F)c(F)c1Nc1ccc(I)cc1F [PD0325901, (R)—N-(2,3-dihydroxypropoxy)-3,4-difluoro-2-(2-fluoro-4-iodophenylamino)benzamide, reference compound]",–,–,–,–,–,–,–,–,–,five of them were sensitive to PD0325901 inhibition,intermediate response,showed less response,sensitive to PD0325901 as a single agent

# More lines, main results first:
Biacore Relative RUmax (IGF-1R),"binding activity toward M13-C06 (IGF-1R; SPR and tr-FRET, both assays)",loss in affinity for M14-G11 Fab based on the measured KD (IGF-1R-Fc),Compound,C06 binding (IGF-1R-Fc),C03 binding (IGF-1R-Fc),G11 binding (IGF-1R-Fc),P1E2 binding (IGF-1R-Fc),αIR3 binding (IGF-1R-Fc),effect of mutation on M13-C06 and M14-C03 Fab binding (IGF-1R-Fc),cell growth ([1]; 7 NSCLC cell lines),cell growth ([1]; BxPC3 and Panc-1),cell growth ([1]; H460 and H1650),cell growth ([1]; MiaPaCa2 and Su86.86)
0.8,–,–,SD010: hIGF-1R-Fc mutant G271D,NE (No effect (NE): measured KD within 2.5-fold of WT hIGF-1R-Fc),NE (No effect (NE): measured KD within 2.5-fold of WT hIGF-1R-Fc),NE (No effect (NE): measured KD within 2.5-fold of WT hIGF-1R-Fc),NE (No effect (NE): measured KD within 2.5-fold of WT hIGF-1R-Fc),NE (No effect (NE): measured KD within 2.5-fold of WT hIGF-1R-Fc),–,–,–,–,–
0.8,–,–,SD004: hIGF-1R-Fc mutant S210H_A211Q,NE (No effect (NE): measured KD within 2.5-fold of WT hIGF-1R-Fc),NE (No effect (NE): measured KD within 2.5-fold of WT hIGF-1R-Fc),NE (No effect (NE): measured KD within 2.5-fold of WT hIGF-1R-Fc),–,–,–,–,–,–,–
0.9,–,–,SD005: hIGF-1R-Fc mutant A217T,NE (No effect (NE): measured KD within 2.5-fold of WT hIGF-1R-Fc),NE (No effect (NE): measured KD within 2.5-fold of WT hIGF-1R-Fc),NE (No effect (NE): measured KD within 2.5-fold of WT hIGF-1R-Fc),–,–,–,–,–,–,–
–,virtually no binding activity,–,"SD015: hIGF-1R-Fc mutant H464E (Table 20), E464H",S (Strong (S): binding to antibody was ablated by mutation),S (Strong (S): binding to antibody was ablated by mutation),NE (No effect (NE): measured KD within 2.5-fold of WT hIGF-1R-Fc),–,–,complete ablation of the binding reaction,–,–,–,–
0.6,–,–,SD014: hIGF-1R-Fc mutant K412A_A413Q,NE (No effect (NE): measured KD within 2.5-fold of WT hIGF-1R-Fc),NE (No effect (NE): measured KD within 2.5-fold of WT hIGF-1R-Fc),NE (No effect (NE): measured KD within 2.5-fold of WT hIGF-1R-Fc),NE (No effect (NE): measured KD within 2.5-fold of WT hIGF-1R-Fc),NE (No effect (NE): measured KD within 2.5-fold of WT hIGF-1R-Fc),–,–,–,–,–
0.3,–,approximately 3 fold,SD012: hIGF-1R-Fc mutant E303G,NE (No effect (NE): measured KD within 2.5-fold of WT hIGF-1R-Fc),NE (No effect (NE): measured KD within 2.5-fold of WT hIGF-1R-Fc),W (Weak (W): measured KD between 2.5-10-fold higher than WT),W (Weak (W): measured KD between 2.5-10-fold higher than WT),W (Weak (W): measured KD between 2.5-10-fold higher than WT),–,–,–,–,–
0.6,–,–,SD001: hIGF-1R-Fc mutant Y28A,NE (No effect (NE): measured KD within 2.5-fold of WT hIGF-1R-Fc),–,NE (No effect (NE): measured KD within 2.5-fold of WT hIGF-1R-Fc),–,–,–,–,–,–,–
1.7,–,–,SD018: hIGF-1R-Fc mutant E665A,NE (No effect (NE): measured KD within 2.5-fold of WT hIGF-1R-Fc),NE (No effect (NE): measured KD within 2.5-fold of WT hIGF-1R-Fc),NE (No effect (NE): measured KD within 2.5-fold of WT hIGF-1R-Fc),–,–,–,–,–,–,–
1.9,–,–,"SD019: hIGF-1R-Fc mutant E739W L741F (Table 20), A739W_I741F (Table 17)",NE (No effect (NE): measured KD within 2.5-fold of WT hIGF-1R-Fc),NE (No effect (NE): measured KD within 2.5-fold of WT hIGF-1R-Fc),NE (No effect (NE): measured KD within 2.5-fold of WT hIGF-1R-Fc),–,–,–,–,–,–,–
1.2,–,–,SD002: hIGF-1R-Fc mutant M156A,NE (No effect (NE): measured KD within 2.5-fold of WT hIGF-1R-Fc),–,NE (No effect (NE): measured KD within 2.5-fold of WT hIGF-1R-Fc),–,–,–,–,–,–,–
